The source of these data is patent publication US20060111368A1, “Phosphodiesterase inhibitor” (Kyowa Hakko Kogyo Co., Ltd., priority 2002, published 2006).

The structures appear in SMILES notation. Like-named read-outs stand apart in the source and are kept apart here. Some results are limits rather than exact numbers.

One data set deals with T1, PDE10A (Homo sapiens, UniProt Q9Y233).
T1 construct: made in house; host or cells: Sf9 insect cells (baculovirus, pVL1393)
The experiment in a line: Activity of inhibiting PDE10A activity ([3H]cAMP decomposition inhibiting test). The data set is classed as biochemical. The settings on record: for inhibition at 1 µM: read-out: [3H] cAMP decomposition inhibition rate (%); for IC50: read-out: IC50 (concentration at which to inhibit [3H]cAMP decomposition by 50%). The procedure: Activity of Inhibiting PDE10A Activity (^3H]cAMP Decomposition Inhibiting Test)
PCR was performed using DNAs having base sequences described in SEQ ID NO. 1 and SEQ ID NO. 2 as primers and human kidney cDNA as a template to prepare a plasmid containing amplified fragments. The plasmid was cleaved with restriction endonucleases Pst I and Xba I to obtain a Pst I-Xba I fragment of 0.7 kb.
Meanwhile, Est clone (Cosmo Bio, Tokyo) of GenBank, ACCESSION WO 4835 was cleaved with restriction endonucleases Kpn I and Pst I to obtain a Kpn I-Pst I fragment of 1.5 kb.
The resulting Pst I-Xba I fragment of 0.7 kb and Kpn I-Pst I fragment of 1.5 kb were subcloned in a Kpn I-Xba I site of pBluescript II KS(−) (STRATAGENE, La Jolla, Calif., USA),to construct a plasmid having a cDNA fragment completely including a catalyst region of PDE10A. Subsequently, the plasmid was cleaved with restriction endonucleases Kpn I and Not I to obtain a Kpn I-Not I fragment of 2.2 kb.
The resulting Kpn I-Not I fragment of 2.2 kb and a linker having a BamH I-Kpn I cleavage surface prepared by synthetic DNA having base sequences described in SEQ ID NOS. 3 and 4 were subcloned in a BamH I-Not I site of pVL1393 (PharMingen, San Diego, Calif., USA) to obtain a plasmid for preparation of Baculovirus. The plasmid contains a DNA encoding a peptide in which methionine, FLAG tag and a peptide having a 64th to 779th amino acid sequence of PDE10A [GenBank, ACCESSION NP 006652: Gene, vol. 234, p. 109 (1999), J. Biol. Chem., vol. 274, p. 18438 (1999)] are bound in the order.
The above gene recombinational manipulation was performed according to the method described in Molecular Cloning, 2nd edition, Cold Spring Harbor Laboratory Press, New York (1989).
The expression of PDE10A was conducted according to the Baculovirus expression vector system manual (PharMingen) using insect cells. As insect cells, Sf9 cells (Asahi Technoglass, Tokyo) were used. Sf9 cells were infected with a supernatant (co-transfection sup) containing PDE10A expression virus prepared according to the manual, and cultured at 27° C. for 4 days. The cells were recovered, washed with a phosphate-buffered saline (PBS), and then suspended in an extraction solution [20 mmol/L Tris-acetate (pH 7.5), 2 mmol/L MgCl2, 1 mmol/L dithiothreitol, 1 mmol/L ethylenediaminetetraacetic acid (EDTA), 0.25 mol/L sucrose, 250 unit/mL aprotinin, 40 μg/mL phenylmethylsulfonyl fluoride, and 1 μg/mL pepstatin A]. The cells were disrupted in ice with the maximum output under conditions of 5 seconds and five times using an ultrasonic disruption machine (TOMY model UR-200R, TOMY, Tokyo). A soluble fraction was obtained by centrifugation under 10,000 rpm of the fraction at 4° C. for 30 minutes, and the resulting soluble fraction was used for measuring the PDE activity.
The PDE activity was measured according to the method described in Methods Enzymol., vol. 159, p. 457 (1988).
Using [^3H]cAMP as a substrate, an enzyme reaction was conducted in a reaction solution containing 300 μL of 50 mmol/L N,N-bis (2-hydroxyethyl)-2-aminoethanesulfonic acid (pH 7.2), 1 mmol/L MgCl2 and 0.1 mmol/L ethylene glycol-bis (β-aminoethyl ether)-N,N,N′,N′-tetraacetic acid: EGTA). The concentration of the substrate was 0.2 μmol/L. To 95 μL of an enzyme dilute solution were added 5 μL of a test compound (DMSO solution) and 200 μL of a substrate solution. The mixture was incubated at 30° C. for 20 minutes, and then HCl was added to stop the reaction. The reaction product (5′-AMP) was converted to adenosine using 5′-nucleotidase, and separated the unreacted product from the reactant by DEAE-Sephadex A-25 column (Amersham Pharmacia Biotech, Uppsala, Sweden). The elute was moved to scintillation vials, 6 mL of Ultima Gold (Packard Instrument, Meriden, Conn., USA) was added, and the radioactivity was measured for 2 minutes using a liquid scintillation counter (Beckman LS6500, Beckman, Tokyo),. […]

[1] abbreviates: Test compound concentration 1 μmol/L, substrate [3H]cAMP 0.2 μmol/L.

T1 sequence (Q9Y233 340-1055): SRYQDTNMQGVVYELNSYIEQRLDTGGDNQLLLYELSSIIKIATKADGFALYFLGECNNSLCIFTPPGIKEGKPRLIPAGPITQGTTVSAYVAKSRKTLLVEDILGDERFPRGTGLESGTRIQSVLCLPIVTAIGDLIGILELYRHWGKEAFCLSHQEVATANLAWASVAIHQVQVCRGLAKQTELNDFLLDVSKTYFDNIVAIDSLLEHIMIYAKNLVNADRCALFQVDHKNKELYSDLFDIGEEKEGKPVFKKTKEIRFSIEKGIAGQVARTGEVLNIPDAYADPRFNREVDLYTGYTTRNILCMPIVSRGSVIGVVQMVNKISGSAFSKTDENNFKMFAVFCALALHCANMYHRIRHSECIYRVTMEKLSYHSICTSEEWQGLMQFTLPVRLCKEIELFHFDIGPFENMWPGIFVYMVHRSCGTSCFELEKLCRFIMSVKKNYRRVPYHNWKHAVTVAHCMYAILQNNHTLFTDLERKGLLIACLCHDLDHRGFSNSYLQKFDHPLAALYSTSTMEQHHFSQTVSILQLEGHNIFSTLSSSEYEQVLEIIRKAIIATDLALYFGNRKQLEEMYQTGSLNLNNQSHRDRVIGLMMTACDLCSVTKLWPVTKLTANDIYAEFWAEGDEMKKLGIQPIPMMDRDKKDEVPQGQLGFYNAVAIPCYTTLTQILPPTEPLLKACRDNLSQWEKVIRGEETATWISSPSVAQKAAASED

In general, melting point refers to the temperature, or range, at which the solid turns liquid. What is called inhibition is the change of the read-out against control, counted positive when it falls. `Cc1c(-c2ccc(-c3ccccc3CN3CCN(c4ccccc4)CC3)cc2)nc2ccc(F)cc2c1CO` [Compound 11, 6-Fluoro-4-hydroxymethyl-3-methyl-2-[2′-(4-phenylpiperazin-1-yl)methylbiphenyl-4-yl]quinoline] came in with a melting point of 154 to 156 °C. In addition, the inhibition at 1 µM on PDE10A (setting [1]) stood at 90%. In addition, the IC50 at PDE10A (substrate [3H]cAMP 0.2 μmol/L) was found to be 173 nM.
As to `Cc1c(-c2ccc(-c3ccccc3CNc3ccccc3)cc2)nc2ccc(F)cc2c1C(=O)O` [Compound N, 6-Fluoro-3-methyl-2-[(2′-phenylamino)methylbiphenyl-4-yl]quinoline-4-carboxylic acid], the melting point was 222 to 224 °C. Further, on PDE10A (setting [1]), the inhibition at 1 µM came out at 99%. At PDE10A (substrate [3H]cAMP 0.2 μmol/L), the IC50 came to 13 nM.
For `Cc1c(-c2ccc(-c3ccccc3CO)cc2)nc2ccc(F)cc2c1C(=O)O` [K, 6-Fluoro-2-(2′-hydroxymethylbiphenyl-4-yl)-3-methylquinoline-4-carboxylic acid], the melting point is 258 to 260 °C. The inhibition at 1 µM at PDE10A (setting [1]) was 90%.
In the case of `Cc1c(-c2ccc(-c3ccccc3-c3ccccc3)cc2)nc2ccc(F)cc2c1C(N)=O` [O, 6-Fluoro-3-methyl-2-([1,1′:2′,1″-terphenyl]-4-yl)quinone-4-carboxamide], the melting point fell in the range of 243 to 246 °C. The inhibition at 1 µM at PDE10A came to 94%. Moreover, on PDE10A (substrate [3H]cAMP 0.2 μmol/L), the IC50 was 33 nM.
Turning to `CCOc1ccccc1-c1ccc(-c2nc3ccc(F)cc3c(CO)c2C)cc1` [Compound 3, 2-(21-Ethoxybiphenyl-4-yl)-6-fluoro-4-hydroxymethyl-3-methylquinoline], the melting point was in the range of 140 to 143 °C. For the same compound, the inhibition at 1 µM on PDE10A (setting [1]) was found to be 97%. At PDE10A (substrate [3H]cAMP 0.2 μmol/L), the IC50 was 76 nM.
For `COc1ccccc1-c1ccc(-c2nc3ccc(F)cc3c(C(=O)O)c2C)cc1` [D, 6-Fluoro-2-(2′-methoxybiphenyl-4-yl)-3-methylquinoline-4-carboxylic acid], the melting point lay within 283 to 295 °C. On PDE10A (setting [1]), the inhibition at 1 µM amounted to 99%. The IC50 at PDE10A (substrate [3H]cAMP 0.2 μmol/L) was determined as 11 nM.
The compound `Cc1c(-c2ccc(-c3ccccc3C=O)cc2)nc2ccc(F)cc2c1C(=O)O` [Compound J, 6-Fluoro-2-(2′-formylbiphenyl-4-yl)-3-methylquinoline-4-carboxylic acid] gave a melting point above 300 °C. Also, the inhibition at 1 µM at PDE10A (setting [1]) came out at 99%. The IC50 on PDE10A (substrate [3H]cAMP 0.2 μmol/L) was determined as 16 nM.
`Cc1c(-c2ccc(-c3ccccc3-c3ccccc3)cc2)nc2ccc(F)cc2c1C` [Compound 18, 3,4-Dimethyl-6-fluoro-2-([1,1′:2′,1″-terphenyl]-4-yl)quinoline] registered a melting point of 194 to 195 °C. Besides, the inhibition at 1 µM on PDE10A (setting [1]) stood at 97%. In addition, the IC50 at PDE10A (substrate [3H]cAMP 0.2 μmol/L) turned out to be 4.8 nM.
As to `Cc1c(-c2ccc(-c3ccccc3CNc3ccccc3)cc2)nc2ccc(F)cc2c1CO` [Compound 13, 6-Fluoro-4-hydroxymethyl-3-methyl-2-[2′-(phenylamino)methylbiphenyl-4-yl]quinoline], the melting point was in the range of 201 to 202 °C. For the same compound, the inhibition at 1 µM on PDE10A (setting [1]) came to 90%. Further, the IC50 on PDE10A (substrate [3H]cAMP 0.2 μmol/L) came out at 103 nM.
